Measurements taken from publication PMC7240968, “Synthesis and Biological Evaluation of Imidazo[2,1-b]Thiazole based Sulfonyl Piperazines as Novel Carbonic Anhydrase II Inhibitors” (Metabolites, 2020).

Assays:
hCA II = target: T1, hCA II (Homo sapiens, UniProt P00918); experiment: stopped flow CO2 hydrase assay, hCA II; type: biochemical; conditions: recombinant cytosolic isoform; mean from 3 different assays, errors ±5–10%
T1 construct: made in house
Procedure: (§1) The newly synthesized imidazo[2,1-b]thiazole-sulfonyl piperazines (9aa-ee) were screened for their CA inhibition activity against cytosolic (hCA I, hCA II) and the tumor associated (hCA IX, hCAXII) isoforms by a stopped flow CO2 hydrase assay.
(§2) The inhibition assay of selected CA isozymes was performed using SX.18V-R Applied Photophysics (Oxford, UK) stopped flow instrument. 10 mM Hepes (pH 7.4) as a buffer, with Phenol Red (at a concentration of 0.2 mM) as an indicator, 0.1M Na2SO4 or NaClO4 (To maintain the constant ionic strength; these anions are not inhibitory in the used concentration), following the CA-catalyzed CO2 hydration reaction for a period of 5–10 s. […] Stock solutions of inhibitors were prepared at a concentration of 10 mM (in DMSO-water 1:1 v/v) and dilutions up to 0.01 nM done with the assay buffer mentioned above. […] Inhibitor and enzyme solutions were pre-incubated together for 10 min at room temperature prior to assay, in order to allow for the formation of the E-I complex. […] The inhibition constants were obtained by non-linear least square methods using the Cheng-Prusoff equation, as reported earlier, [24, 25] and represent the mean from at least three different determinations. All CA isozymes used here were recombinant proteins obtained as reported earlier by our group.

hCA IX = target: T2, hCA IX (Homo sapiens, UniProt Q16790); experiment: stopped flow CO2 hydrase assay, hCA IX; type: biochemical; conditions: recombinant tumor associated isoform; mean from 3 different assays, errors ±5–10%
T2 construct: made in house
Procedure: as §1, §2

hCA I = target: T3, hCA I (Homo sapiens, UniProt P00915); experiment: stopped flow CO2 hydrase assay, hCA I; type: biochemical; conditions: recombinant cytosolic isoform; mean from 3 different assays, errors ±5–10%
T3 construct: made in house
Procedure: as §1, §2

hCA XII = target: T4, hCA XII (Homo sapiens, UniProt O43570); experiment: stopped flow CO2 hydrase assay, hCA XII; type: biochemical; conditions: recombinant tumor associated isoform; mean from 3 different assays, errors ±5–10%
T4 construct: made in house
Procedure: as §1, §2

T4 sequence (O43570 25-354): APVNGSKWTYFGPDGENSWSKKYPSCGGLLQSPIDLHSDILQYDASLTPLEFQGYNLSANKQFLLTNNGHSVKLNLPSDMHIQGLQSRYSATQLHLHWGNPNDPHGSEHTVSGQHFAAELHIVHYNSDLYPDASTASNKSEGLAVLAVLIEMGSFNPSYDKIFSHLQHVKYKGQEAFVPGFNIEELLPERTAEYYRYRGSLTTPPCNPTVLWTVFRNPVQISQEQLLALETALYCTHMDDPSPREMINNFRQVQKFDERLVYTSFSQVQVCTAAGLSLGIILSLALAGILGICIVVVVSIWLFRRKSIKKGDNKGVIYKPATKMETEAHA
T3 sequence (P00915 whole entry, canonical isoform): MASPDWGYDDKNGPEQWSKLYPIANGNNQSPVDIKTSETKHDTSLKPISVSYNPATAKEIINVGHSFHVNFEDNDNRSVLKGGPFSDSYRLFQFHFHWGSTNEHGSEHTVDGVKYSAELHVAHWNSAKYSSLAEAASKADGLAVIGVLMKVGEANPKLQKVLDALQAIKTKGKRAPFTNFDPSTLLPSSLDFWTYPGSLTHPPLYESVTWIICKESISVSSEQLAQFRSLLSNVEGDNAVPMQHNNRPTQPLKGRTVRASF

For `Cc1ccc(-c2cnc3sc(C(=O)N4CCN(S(=O)(=O)c5ccc(C(C)(C)C)cc5)CC4)cn23)cc1` [Compound 9bd, (4-((4-(Tert-butyl)phenyl)sulfonyl)piperazin-1-yl)(5-(p-tolyl)imidazo[2,1-b]thiazol-2-yl)methanone], which melting point is on record?
Its melting point is 222 to 224 °C.

Which results are given for “(4-((4-(Tert-butyl)phenyl)sulfonyl)piperazin-1-yl)(5-(4-chlorophenyl)imidazo[2,1-b]thiazol-2-yl)methanone [Compound 9ce]”?
Ki (hCA II): 62.1 µM; Ki (hCA IX): > 100 µM; Ki (hCA I): > 100 µM; Ki (hCA XII): > 100 µM

What does the source list for “(4-((4-(Tert-butyl)phenyl)sulfonyl)piperazin-1-yl)(5-(4-fluorophenyl)imidazo[2,1-b]thiazol-2-yl)methanone [Compound 9de]”?
Ki (hCA II): > 100 µM; Ki (hCA IX): > 100 µM; Ki (hCA I): > 100 µM; Ki (hCA XII): > 100 µM

Which Ki (hCA II) does the source give for “(4-((4-Chlorophenyl)sulfonyl)piperazin-1-yl)(5-(4-fluorophenyl)imidazo[2,1-b]thiazol-2-yl)methanone [Compound 9dc]” here?
The Ki was 98.2 µM.

What about the Ki (hCA IX) of the same compound?
The Ki was greater than 100 µM.

What about the Ki (hCA I) of the same compound?
The Ki was greater than 100 µM.

And the Ki (hCA XII)?
Its Ki is greater than 100 µM.

For “(4-((4-Chlorophenyl)sulfonyl)piperazin-1-yl)(5-phenylimidazo[2,1-b]thiazol-2-yl)methanone [Compound 9ec]”, which Ki (hCA II) is on record?
Its Ki is greater than 100 µM.

What about the Ki (hCA IX) of the same compound?
Its Ki is greater than 100 µM.

And the Ki (hCA I)?
Its Ki is greater than 100 µM.

What about the Ki (hCA XII) of the same compound?
Its Ki is greater than 100 µM.

Which results are given for “(4-((4-Methoxyphenyl)sulfonyl)piperazin-1-yl)(5-(p-tolyl)imidazo[2,1-b]thiazol-2-yl)methanone [Compound 9ba]”?
Ki (hCA II): > 100 µM; Ki (hCA IX): > 100 µM; Ki (hCA I): > 100 µM; Ki (hCA XII): > 100 µM

For “(4-((4-Methoxyphenyl)sulfonyl)piperazin-1-yl)(5-phenylimidazo[2,1-b]thiazol-2-yl)methanone [Compound 9ea]”, which Ki (hCA II) is on record?
Its Ki is greater than 100 µM.

And the Ki (hCA IX)?
The Ki was greater than 100 µM.

What about the Ki (hCA I) of the same compound?
Its Ki is greater than 100 µM.

What about the Ki (hCA XII) of the same compound?
The Ki was greater than 100 µM.

Which results are given for “(5-(4-Chlorophenyl)imidazo[2,1-b]thiazol-2-yl)(4-((4-chlorophenyl)sulfonyl)piperazin-1-yl)methanone [Compound 9cc]”?
Ki (hCA II): 57.8 µM; Ki (hCA IX): > 100 µM; Ki (hCA I): > 100 µM; Ki (hCA XII): > 100 µM

With “(5-(4-Chlorophenyl)imidazo[2,1-b]thiazol-2-yl)(4-((4-methoxyphenyl)sulfonyl)piperazin-1-yl)methanone [Compound 9ca]” as the compound, how does the Ki (hCA II) read?
The Ki was 79.9 µM.

What about the Ki (hCA IX) of the same compound?
The Ki was greater than 100 µM.

And the Ki (hCA I)?
Its Ki is greater than 100 µM.

What about the Ki (hCA XII) of the same compound?
Its Ki is greater than 100 µM.

What does the source list for “(5-(4-Chlorophenyl)imidazo[2,1-b]thiazol-2-yl)(4-(phenylsulfonyl)piperazin-1-yl)methanone [Compound 9cd]”?
Ki (hCA II): 71.2 µM; Ki (hCA IX): > 100 µM; Ki (hCA I): > 100 µM; Ki (hCA XII): > 100 µM

Which Ki (hCA II) does the source give for “(5-(4-Chlorophenyl)imidazo[2,1-b]thiazol-2-yl)(4-tosylpiperazin-1-yl)methanone [Compound 9cb]” here?
Its Ki is greater than 100 µM.

What about the Ki (hCA IX) of the same compound?
The Ki was greater than 100 µM.

What about the Ki (hCA I) of the same compound?
The Ki was greater than 100 µM.

And the Ki (hCA XII)?
The Ki was greater than 100 µM.

With “(5-(4-Fluorophenyl)imidazo[2,1-b]thiazol-2-yl)(4-((4-methoxyphenyl)sulfonyl)piperazin-1-yl)methanone [Compound 9da]” as the compound, how does the Ki (hCA II) read?
The Ki was 67.9 µM.

And the Ki (hCA IX)?
Its Ki is greater than 100 µM.

And the Ki (hCA I)?
The Ki was greater than 100 µM.

What about the Ki (hCA XII) of the same compound?
Its Ki is greater than 100 µM.

Which results are given for “(5-(4-Fluorophenyl)imidazo[2,1-b]thiazol-2-yl)(4-(phenylsulfonyl)piperazin-1-yl)methanone [Compound 9dd]”?
Ki (hCA II): > 100 µM; Ki (hCA IX): > 100 µM; Ki (hCA I): > 100 µM; Ki (hCA XII): > 100 µM

Which results are given for “(5-(4-Fluorophenyl)imidazo[2,1-b]thiazol-2-yl)(4-tosylpiperazin-1-yl)methanone [Compound 9db]”?
Ki (hCA II): > 100 µM; Ki (hCA IX): > 100 µM; Ki (hCA I): > 100 µM; Ki (hCA XII): > 100 µM

Which Ki (hCA II) does the source give for “(5-(4-Methoxyphenyl)imidazo[2,1-b]thiazol-2-yl)(4-((4-methoxyphenyl)sulfonyl)piperazin-1-yl)methanone [Compound 9aa]” here?
Its Ki is greater than 100 µM.

And the Ki (hCA IX)?
Its Ki is greater than 100 µM.

And the Ki (hCA I)?
The Ki was greater than 100 µM.

What about the Ki (hCA XII) of the same compound?
The Ki was greater than 100 µM.

With “(5-(4-Methoxyphenyl)imidazo[2,1-b]thiazol-2-yl)(4-(phenylsulfonyl)piperazin-1-yl)methanone [Compound 9ad]” as the compound, how does the Ki (hCA II) read?
The Ki was greater than 100 µM.

And the Ki (hCA IX)?
The Ki was greater than 100 µM.

And the Ki (hCA I)?
Its Ki is greater than 100 µM.

What about the Ki (hCA XII) of the same compound?
The Ki was greater than 100 µM.

With “(5-(p-Tolyl)imidazo[2,1-b]thiazol-2-yl)(4-tosylpiperazin-1-yl)methanone [Compound 9bb]” as the compound, how does the Ki (hCA II) read?
Its Ki is 76.4 µM.

And the Ki (hCA IX)?
The Ki was greater than 100 µM.

What about the Ki (hCA I) of the same compound?
Its Ki is greater than 100 µM.

And the Ki (hCA XII)?
The Ki was greater than 100 µM.

For “(5-Phenylimidazo[2,1-b]thiazol-2-yl)(4-(phenylsulfonyl)piperazin-1-yl)methanone [Compound 9ed]”, which Ki (hCA II) is on record?
The Ki was greater than 100 µM.

And the Ki (hCA IX)?
The Ki was greater than 100 µM.

And the Ki (hCA I)?
The Ki was greater than 100 µM.

And the Ki (hCA XII)?
The Ki was greater than 100 µM.

Which Ki (hCA II) does the source give for “(5-Phenylimidazo[2,1-b]thiazol-2-yl)(4-tosylpiperazin-1-yl)methanone [Compound 9eb]” here?
Its Ki is greater than 100 µM.

What about the Ki (hCA IX) of the same compound?
The Ki was greater than 100 µM.

What about the Ki (hCA I) of the same compound?
The Ki was greater than 100 µM.

What about the Ki (hCA XII) of the same compound?
Its Ki is greater than 100 µM.
